This passage reports IC50 results from US20070219203A1, “Arylalkylamino-substituted quinazoline analogues” (Neurogen Corporation, priority 2004, published 2007).

In the first assay the target is T1, human capsaicin receptor (Homo sapiens, UniProt Q8NER1).
T1 construct: expressed in transfected cells
T1 sequence (Q8NER1 whole entry): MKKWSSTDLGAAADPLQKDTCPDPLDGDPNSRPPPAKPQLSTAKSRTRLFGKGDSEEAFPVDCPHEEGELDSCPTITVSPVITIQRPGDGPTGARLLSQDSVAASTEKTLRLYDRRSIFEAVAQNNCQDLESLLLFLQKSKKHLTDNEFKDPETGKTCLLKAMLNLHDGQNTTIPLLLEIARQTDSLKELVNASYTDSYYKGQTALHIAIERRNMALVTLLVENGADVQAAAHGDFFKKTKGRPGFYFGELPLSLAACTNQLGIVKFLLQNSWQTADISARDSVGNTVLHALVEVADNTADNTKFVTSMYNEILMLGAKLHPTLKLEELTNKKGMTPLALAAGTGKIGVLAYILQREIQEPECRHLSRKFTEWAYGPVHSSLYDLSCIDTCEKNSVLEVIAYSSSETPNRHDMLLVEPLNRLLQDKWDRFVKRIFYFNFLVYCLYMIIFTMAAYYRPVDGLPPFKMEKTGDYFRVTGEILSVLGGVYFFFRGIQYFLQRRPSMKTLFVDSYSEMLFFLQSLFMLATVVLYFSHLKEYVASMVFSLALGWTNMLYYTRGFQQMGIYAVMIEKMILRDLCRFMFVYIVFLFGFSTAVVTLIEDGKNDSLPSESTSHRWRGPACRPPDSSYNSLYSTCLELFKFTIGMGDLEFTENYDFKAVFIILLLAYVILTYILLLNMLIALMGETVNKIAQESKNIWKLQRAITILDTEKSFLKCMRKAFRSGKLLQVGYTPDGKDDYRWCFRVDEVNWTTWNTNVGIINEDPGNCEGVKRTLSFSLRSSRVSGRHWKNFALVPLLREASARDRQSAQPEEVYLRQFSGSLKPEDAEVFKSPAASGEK
Kind of assay: Calcium mobilization assay, antagonist activity (Example 6). The class given is cell-based. The conditions noted are these: Table I; 50% decrease in fluorescence response of cells expressing human capsaicin receptor exposed to capsaicin. Here is the method:
A cDNA encoding full length human capsaicin receptor (SEQ ID NO:1, 2 or 3 of U.S. Pat. No. 6,482,611) is subcloned in the plasmid pBK-CMV (Stratagene, La Jolla, Calif.) for recombinant expression in mammalian cells.
Human embryonic kidney (HEK293) cells are transfected with the pBK-CMV expression construct encoding the full length human capsaicin receptor using standard methods. The transfected cells are selected for two weeks in media containing G418 (400 μg/ml) to obtain a pool of stably transfected cells. Independent clones are isolated from this pool by limiting dilution to obtain clonal stable cell lines for use in subsequent experiments.
Cells transfected with expression plasmids (as described in Example 4) and thereby expressing human capsaicin receptor are seeded and grown to 70-90% confluency in FALCON black-walled, clear-bottomed 96-well plates (#3904, BECTON-DICKINSON, Franklin Lakes, N.J.). The culture medium is emptied from the 96 well plates and […] calcium sensitive dye (Molecular Probes, Eugene, Oreg.) is added to each well (dye solution: 1 mg […], 440 μL DMSO and 440 μl 20% pluronic acid in DMSO, diluted 1:250 in Krebs-Ringer HEPES (KRH) buffer (25 mM HEPES, 5 mM KCl, 0.96 mM NaH2PO4, 1 mM MgSO4, 2 mM CaCl2, 5 mM glucose, 1 mM probenecid, pH 7.4), 50 μl diluted solution per well). Plates are covered with aluminum foil and incubated at 37° C. for 1-2 hours in an environment containing 5% CO2. After the incubation, the dye is emptied from the plates, and the cells are washed once with KRH buffer, and resuspended in KRH buffer.
To measure the ability of a test compound to agonize or antagonize a calcium mobilization response in cells expressing capsaicin receptors to capsaicin or other vanilloid agonist, the EC50 of the agonist capsaicin is first determined. An additional 20 μl of KRH buffer and 1 μl DMSO is added to each well of cells, prepared as described above. 100 μl capsaicin in KRH buffer is automatically transferred by the FLIPR instrument to each well. Capsaicin-induced calcium mobilization is monitored using either FLUOROSKAN ASCENT (Labsystems; Franklin, Mass.) or FLIPR (fluorometric imaging plate reader system; Molecular Devices, Sunnyvale, Calif.) instruments. Data obtained between 30 and 60 seconds after agonist application are used to generate an 8-point concentration response curve, with final capsaicin concentrations of 1 nM to 3 μM. KALEIDAGRAPH software (Synergy Software, Reading, Pa.) is used to fit the data to the equation: y=a*(1/(1+(b/x)^c)) to determine the 50% excitatory concentration (EC50) for the response. In this equation, y is the maximum fluorescence signal, x is the concentration of the agonist or antagonist (in this case, capsaicin), a is the Emax, b corresponds to the EC50 value and c is the Hill coefficient. Determination of Agonist Activity
Test compounds are dissolved in DMSO, diluted in 20 μl KRH buffer so that the final concentration of test compounds in the assay well is between 1 μM and 5 μM, and added to cells prepared as described above. The 96 well plates containing prepared cells and test compounds are incubated in the dark, at room temperature for 0.5 to 6 hours. It is important that the incubation not continue beyond 6 hours. Just prior to determining the fluorescence response, 100 μl capsaicin in KRH buffer at twice the EC50 concentration determined as described above is automatically added by the FLIPR instrument to each well of the 96 well plate for a final sample volume of 200 μl and a final capsaicin concentration equal to the EC50. The final concentration of test compounds in the assay wells is between 1 μM and 5 μM. […] The concentration of antagonist required to provide a 50% decrease, relative to the response observed in the presence of capsaicin and without antagonist, is the IC50 for the antagonist, and is preferably below 1 micromolar, 100 nanomolar, 10 nanomolar or 1 nanomolar.
Turning to `CCOCc1nc(NCCc2ccccc2C(F)(F)F)c2ccc(-c3ncccc3Cl)nc2n1` [Compound 56, 7-(3-chloropyridin-2-yl)-2-(ethoxymethyl)-N-{2-[2-(trifluoromethyl)phenyl]ethyl}pyrido [2,3-d]pyrimidin-4-amine], the IC50 is ≤ 1000 nM.

`C[C@@H]1CN(Cc2nc(NCCc3ccccc3Cl)c3ccc(-c4ncccc4C(F)(F)F)cc3n2)C[C@H](C)O1` [Compound 24, N-[2-(2-chlorophenyl)ethyl]-2-{[(2R,6S)-2,6-dimethylmorpholin-4-yl]methyl}-7-[3-(trifluoromethyl)pyridin-2-yl]quinazolin-4-amine]: the half-inhibitory concentration (IC50) is ≤ 1000 nM.

With `CC(C)COCc1nc(NCCc2ccccc2C(F)(F)F)c2ccc(-c3ncccc3Cl)nc2n1` [Compound 50, 7-(3-chloropyridin-2-yl)-2-(isobutoxymethyl)-N-{2-[2-(trifluoromethyl)phenyl]ethyl}pyrido[2,3-d]pyrimidin-4-amine], the IC50 was ≤ 1000 nM.

Regarding `Fc1ccccc1CCNc1ncnc2cc(-c3ncccc3C(F)(F)F)ccc12` [Compound 6, N-[2-(2-fluorophenyl)ethyl]-7-[3-(trifluoromethyl)pyridin-2-yl]quinazolin-4-amine], the IC50 was ≤ 1000 nM.

Regarding `FC(F)(F)c1ccccc1CCNc1ncnc2cc(-c3ncccc3C(F)(F)F)ccc12` [Compound 15, N-{2-[2-(trifluoromethyl)phenyl]ethyl}-7-[3-(trifluoromethyl)pyridin-2-yl]quinazolin-4-amine], the IC50 is ≤ 1000 nM.

Take `CC(C)COCc1nc(NCCc2ccccc2Cl)c2ccc(-c3ncccc3C(F)(F)F)nc2n1` [Compound 33, N-[2-(2-chlorophenyl)ethyl]-2-(isobutoxymethyl)-7-[3-(trifluoromethyl)pyridin-2-yl]pyrido[2,3-d]pyrimidin-4-amine]: the IC50 was ≤ 1000 nM.

With `C[C@H](CNc1ncnc2cc(-c3ncccc3C(F)(F)F)ccc12)c1ccccc1` [Compound 25, N-[(2S)-2-phenylpropyl]-7-[3 (trifluoromethyl)pyridin-2-yl]quinazolin-4-amine], the IC50 was ≤ 1000 nM.

In the case of `CC(C)COCc1nc(NCCc2ccc(F)cc2)c2ccc(-c3ncccc3C(F)(F)F)nc2n1` [Compound 37, N-[2-(4-fluorophenyl)ethyl]-2-(isobutoxymethyl)-7-[3-(trifluoromethyl)pyridin-2-yl]pyrido[2,3-d]pyrimidin-4-amine], the IC50 is ≤ 1000 nM.

On to `COc1ccccc1CCNc1ncnc2cc(-c3ncccc3C(F)(F)F)ccc12` [Compound 9, N-[2-(2-methoxyphenyl)ethYl]-7-{3-(trifluoromethyl)pyridin-2-yl]quinazolin-4-amine], for which the IC50 was ≤ 1000 nM.

Turning to `CC(Cc1ccc(Cl)cc1)Nc1ncnc2cc(-c3ncccc3C(F)(F)F)ccc12` (centres unmarked) [Compound 21, N-[2-(4-chlorophenyl)-1-methylethyl]-7-[3-(trifluoromethyl)pyridin-2-yl]quinazolin-4-amine], the IC50 was ≤ 1000 nM.

With `CC(C)COCc1nc(NCCc2cccc(C(F)(F)F)c2)c2ccc(-c3ncccc3Cl)nc2n1` [Compound 51, 7-(3-chloropyridin-2-yl)-2-(isobutoxymethyl)-N-{2-[3-(trifluoromethyl)phenyl]ethyl}pyrido[2,3-d]pyrimidin-4-amine], the IC50 was ≤ 1000 nM.

For the compound `CC(C)COCc1nc(NCCc2ccc(F)cc2)c2ccc(-c3ncccc3Cl)nc2n1` [Compound 46, 7-(3-chloropyridin-2-yl)-N-[2-(4-fluorophenyl)ethyl]-2-(isobutoxymethyl)pyrido[2,3-d]pyrimidin-4-amine], the IC50 was ≤ 1000 nM.

`FC(F)(F)c1cccnc1-c1ccc2c(NCCc3ccccc3Cl)ncnc2c1` [Compound 12, N-[2-(2-chlorophenyl)ethyl]-7-[3-(trifluoromethyl)pyridin-2-yl]quinazolin-4-amine]: the IC50 was ≤ 1000 nM.

For the compound `FC(F)(F)c1cccnc1-c1ccc2c(NCCc3cccc(Cl)c3)ncnc2c1` [Compound 13, N-[2-(3-chlorophenyl)ethyl]-7-{3-(trifluoromethyl)pyridin-2-yl]quinazolin-4-amine], the IC50 was ≤ 1000 nM.

Consider `CC(C)COCc1nc(NCCc2cccc(F)c2)c2ccc(-c3ncccc3C(F)(F)F)nc2n1` [Compound 36, N-[2-(3-fluorophenyl)ethyl]-2-(isobutoxymethyl)-7-[3-(trifluoromethyl)pyridin-2-yl]pyrido[2,3-d]pyrimidin-4-amine], for which the IC50 was ≤ 1000 nM.

Consider `Cc1ccccc1CCNc1nc(COCC(C)C)nc2nc(-c3ncccc3Cl)ccc12` [Compound 58, 7-(3-chloropyridin-2-yl)-2-(isobutoxymethyl)-N-[2-(2-methylphenyl)ethyl]pyrido[2,3-d]pyrimidin-4-amine], for which the IC50 was ≤ 1000 nM.

Turning to `CC(C)COCc1nc(NC(=O)Cc2ccc(F)cc2)c2ccc(-c3ncccc3C(F)(F)F)nc2n1` [Compound 59, 2-(4-fluorophenyl)-N-{2-(isobutoxymethyl)-7-[3-(trifluoromethyl)pyridin-2-yl]pyrido[2,3-d]pyrimidin-4-yl}acetamide], the IC50 was ≤ 1000 nM.

In the case of `COc1ccc(CCNc2ncnc3cc(-c4ncccc4C(F)(F)F)ccc23)cc1` [Compound 11, N-[2-(4-methoxyphenyl)ethyl]-7-[3-(trifluoromethyl)pyridin-2-yl]quinazolin-4-amine], the IC50 is ≤ 1000 nM.

The same assay, now with this note: Table II; 50% decrease in fluorescence response of cells expressing human capsaicin receptor exposed to capsaicin.
`Cc1ccccc1CCNc1nc(CN2CCC(C)CC(C)(C)C2)nc2cc(-c3ncccc3C(F)(F)F)ccc12` (centres unmarked) [Compound 107, (2-o-Tolyl-ethyl)-[7-(3-trifluoromethyl-pyridin-2-yl)-2-(3,3,5-trimethyl-azepan-1-ylmethyl)quinazolin-4-yl]-amine]: the IC50 was ≤ 1000 nM.

Regarding `CC1CC(C)CN(Cc2nc(NCCc3ccccc3)c3ccc(-c4ncccc4C(F)(F)F)cc3n2)C1` (centres unmarked) [Compound 176, [2-(3,5-Dimethyl-piperidin-1-ylmethyl)-7-(3-trifluoromethyl-pyridin-2-yl)-quinazolin-4-yl]-phenethyl-amine], the IC50 was ≤ 1000 nM.

With `CCC(CNc1ncnc2cc(-c3ncccc3C(F)(F)F)ccc12)c1ccccc1` (centres unmarked) [Compound 68, (2-Phenyl-butyl)-[7-(3-trifluoromethyl-pyridin-2-yl)-quinazolin-4-yl]-amine], the IC50 was ≤ 1000 nM.

As for `Cc1ccccc1CCNc1nc(CN2CC(C)CC(C)C2)nc2cc(-c3ncccc3C(F)(F)F)ccc12` (centres unmarked) [Compound 177, [2-(3,5-Dimethyl-piperidin-1-ylmethyl)-7-(3-trifluoromethyl-pyridin-2-Yl)-quinazolin-4-yl]-(2-o-tolyl-ethyl)-amine], the IC50 is ≤ 1000 nM.

Take `C=CCN(CC=C)Cc1nc(NCCc2ccccc2)c2ccc(-c3ncccc3C(F)(F)F)cc2n1` [Compound 130, [2-Diallylaminomethyl-7-(3-trifluoromethyl-pyridin-2-yl)-quinazolin-4-yl]-phenethyl-amine]: the IC50 is ≤ 1000 nM.

Take `CCCN(Cc1nc(NCCc2ccccc2C)c2ccc(-c3ncccc3C(F)(F)F)cc2n1)CC1CC1` [Compound 140, [2-[(Cyclopropylmethyl-propyl-amino)-methyl]-7-(3-trifluoromethyl-pyridin-2-yl)-quinazolin-4-yl]-(2-o-tolyl-ethyl)-amine]: the IC50 was ≤ 1000 nM.

As for `FC(F)(F)c1cccnc1-c1ccc2c(NC3CCc4ccccc4C3)ncnc2c1` (centres unmarked) [Compound 77, (1,2,3,4-Tetrahydro-naphthalen-2-yl)-[7-(3-trifluoromethyl-pyridin-2-yl)-quinazolin-4-yl]-amine], the concentration for half-maximal inhibition (IC50) is ≤ 1000 nM.

As to `CCCCN(CCCC)Cc1nc(NCCc2ccccc2C)c2ccc(-c3ncccc3C(F)(F)F)cc2n1` [Compound 146], the IC50 was ≤ 1000 nM.
